Source: patent US9533965B2, “2-arylbenzofuran-7-formamide compounds, preparation method and use thereof” (SHANGHAI INSTITUTE OF MATERIA MEDICA, CHINESE ACADEMY OF …, priority 2012, dated 2017)
Values joined by “and” are separate entries in the source; they are usually repeats but may differ in a detail not shown here. Equal values may be shown once. Read-outs that look alike come from different tables or passages of the source.

Columns and labels:
wild type cell line V79 = assay: In vitro cell proliferation inhibition (MTT), V79 cells; type: cell-based, Chinese hamster; conditions: Cricetulus griseus, read-out: V79 cell IC50
[1] = system: Chinese hamster lung fibroblast cell line VC8 (BRCA2−/−); assay: In vitro cell proliferation inhibition (MTT), VC8 cells; type: cell-based; conditions: read-out: VC8 cell IC50
[2] = compound during phase II clinical trials; cited from earlier work
PARP1 = PARP1 (Homo sapiens, UniProt P09874); assay: PARP1 enzymatic inhibition at molecular levels (ELISA); conditions: ELISA IC50, PARP1 enzyme, molecular level
Sequence of PARP1 (P09874 whole entry): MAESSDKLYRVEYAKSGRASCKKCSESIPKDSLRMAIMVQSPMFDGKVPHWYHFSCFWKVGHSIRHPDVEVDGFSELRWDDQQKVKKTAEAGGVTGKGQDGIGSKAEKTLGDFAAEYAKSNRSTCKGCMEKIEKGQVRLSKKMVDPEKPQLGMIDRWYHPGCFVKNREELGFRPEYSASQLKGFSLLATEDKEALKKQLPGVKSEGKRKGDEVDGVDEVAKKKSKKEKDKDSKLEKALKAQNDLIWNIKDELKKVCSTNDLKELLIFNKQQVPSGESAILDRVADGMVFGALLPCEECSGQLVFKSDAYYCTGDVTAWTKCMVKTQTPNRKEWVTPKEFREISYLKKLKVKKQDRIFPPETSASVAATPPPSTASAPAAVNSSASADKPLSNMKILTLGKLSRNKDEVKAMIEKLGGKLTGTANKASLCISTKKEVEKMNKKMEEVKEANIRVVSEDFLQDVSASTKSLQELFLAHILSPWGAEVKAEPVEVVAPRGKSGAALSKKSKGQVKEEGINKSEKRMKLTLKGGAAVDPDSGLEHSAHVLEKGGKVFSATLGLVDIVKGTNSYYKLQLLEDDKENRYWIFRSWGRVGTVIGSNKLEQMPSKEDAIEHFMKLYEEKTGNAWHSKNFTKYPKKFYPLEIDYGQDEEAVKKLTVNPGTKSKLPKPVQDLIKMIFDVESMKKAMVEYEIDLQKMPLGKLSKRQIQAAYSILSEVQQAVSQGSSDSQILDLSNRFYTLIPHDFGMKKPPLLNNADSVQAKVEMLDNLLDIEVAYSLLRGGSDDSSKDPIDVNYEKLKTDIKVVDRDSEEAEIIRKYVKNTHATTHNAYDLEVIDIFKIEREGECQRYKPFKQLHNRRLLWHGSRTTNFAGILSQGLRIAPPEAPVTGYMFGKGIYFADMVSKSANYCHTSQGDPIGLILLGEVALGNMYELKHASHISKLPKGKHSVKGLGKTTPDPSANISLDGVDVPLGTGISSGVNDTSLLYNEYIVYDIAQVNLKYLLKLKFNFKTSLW

[3] = Cricetulus griseus, V-C8, 72 h, MTT, 72 h, VC8 (BRCA2−/−)

Compound | IC50 (wild type cell line V79; MTT, 72 h, wild type V79) [nM] | IC50 [1, 3] [nM] | IC50 ([1]; MTT, 72 h, VC8 (BRCA2−/−)) [nM] | IC50 (wild type cell line V79; V79, 72 h) [nM] | oral bioavailability of rats [2] [%] | IC50 ([1]; Cricetulus griseus, V-C8, 72 h) [nM] | IC50 (PARP1)
NC(=O)c1cc(F)cc2cc(-c3ccc(CN4CCCC4)cc3)oc12 [5f, 5-fluoro-2-{4-[(pyrrolidin-1-yl)methyl]phenyl}benzofuran-7-carboxamide] | > 10000 | 3360 | 2620 | – | – | – | –
O=C(c1cc(Cc2n[nH]c(=O)c3ccccc23)ccc1F)N1CCN(C(=O)C2CC2)CC1 [AZD2281, Olaparib, reference compound] | – | – | – | > 10000 | 11.1 | 820 ± 330 | –
CN(C)Cc1ccc(-c2cc3cc(F)cc(C(N)=O)c3o2)cc1 [compound 5a, 5-fluoro-2-{4-[(dimethylamino)methyl]phenyl}benzofuran-7-carboxamide] | > 10000 | 750 ± 100 | – | – | – | – | 11.8 ± 8.9 nM
CNCc1ccc(-c2cc3cc(F)cc(C(N)=O)c3o2)cn1 [compound 5c, 5-fluoro-2-{6-[(methylamino)methyl]-3-pyridyl}benzofuran-7-carboxamide] | > 10000 | – | – | – | – | – | 37 nM and 34.2 nM and 72 nM
CNCc1ccc(-c2cc3cc(F)cc(C(N)=O)c3o2)nc1 [compound 5d, 5-fluoro-2-{5-[(methylamino)methyl]-2-pyridyl}benzofuran-7-carboxamide] | > 10000 | 3270 | 1740 | – | – | – | 23 nM and 27.9 nM and 58 nM
CNCc1ccc(-c2cc3cc(F)cc(C(N)=O)c3o2)cc1F [compound 5e, 5-fluoro-2-{4-[(methylamino)methyl]-3-fluorophenyl}benzofuran-7-carboxamide] | > 10000 | 2080 | 1510 | – | – | – | 14.8 nM and 20.8 nM and 74 nM
CN1CCN(Cc2ccc(-c3cc4cc(F)cc(C(N)=O)c4o3)cc2)CC1 [compound 5g, 5-fluoro-2-{4-[(4-methyl-1-piperazino)methyl]phenyl}benzofuran-7-carboxamide] | > 10000 | 2080 | 2140 | – | – | – | 83 nM and 105 nM and 187 nM
NC(=O)c1cc(F)cc2cc(-c3ccc(CN4CCCCC4)cc3)oc12 [compound 5h, 5-fluoro-2-{4-[(piperidin-1-yl)methyl]phenyl}benzofuran-7-carboxamide] | > 10000 | 2600 | 2010 | – | – | – | –
CN1CCCN(Cc2ccc(-c3cc4cc(F)cc(C(N)=O)c4o3)cc2)CC1 [compound 5i, 5-fluoro-2-{4-[(4-methyl-1-homopiperazino)methyl]phenyl}benzofuran-7-carboxamide] | > 10000 | – | – | – | – | – | 104 nM and 101 nM and 207 nM
NC(=O)c1cc(F)cc2cc(-c3ccc(CN4CCOCC4)cc3)oc12 [compound 5j, 5-fluoro-2-{4-[(1-morpholinyl)methyl]phenyl}benzofuran-7-carboxamide] | > 10000 | – | – | – | – | – | –
NC(=O)c1cc(F)cc2cc(-c3ccc(CN4CCSCC4)cc3)oc12 [compound 5k, 5-fluoro-2-{4-[(thiomorpholino)methyl]phenyl}benzofuran-7-carboxamide] | > 10000 | > 10000 | – | – | – | – | 1060 nM and 2060 nM and 1520 nM
NC(=O)c1cc(F)cc2cc(-c3ccc(CNC4CCNCC4)cc3)oc12 [compound 5l, 5-fluoro-2-{4-[(4-piperidyl)aminomethyl]phenyl}-benzofuran-7-carboxamide] | > 10000 | 8310 | 8220 | – | – | – | 182 nM and 107 nM and 393 nM
NC(=O)c1cc(F)cc2cc(-c3ccc(CN[C@@H]4CCOC4)cc3)oc12 [compound 5m, (R)-5-fluoro-2-{4-[(3-tetrahydrofurylamino)methyl]phenyl}benzofuran-7-carboxamide] | > 10000 | 1150 | 1180 | – | – | – | 49 nM and 9.5 nM and 17 nM
NC(=O)c1cc(F)cc2cc(-c3ccc(CNC4CC4)cc3)oc12 [compound 5n, 5-fluoro-2-[4-(cyclopropylaminomethyl)phenyl]benzofuran-7-carboxamide] | > 10000 | – | – | – | – | – | 18 nM and 31 nM and 73 nM
CC(C)NCc1ccc(-c2cc3cc(F)cc(C(N)=O)c3o2)cc1 [compound 5o, 5-fluoro-2-[4-(isopropylaminomethyl)phenyl]benzofuran-7-carboxamide] | > 10000 | 1090 | 941 | – | – | – | 32 nM and 18.8 nM and 25 nM
CNCc1ccc(-c2cc3cc(F)cc(C(N)=O)c3o2)c(F)c1 [compound 5p, 5-fluoro-2-{4-[(methylamino)methyl]-2-fluorophenyl}benzofuran-7-carboxamide] | > 10000 | 1360 | 1620 | – | – | – | 22 nM and 8.9 nM and 40 nM
CN(C)Cc1ccc(-c2oc3c(C(N)=O)cc(F)cc3c2Cl)cc1 [compound 7a, 3-chloro-5-fluoro-2-{4-[(dimethylamino)methyl]phenyl}benzofuran-7-carboxamide] | – | – | – | – | – | – | 9250 nM
